# Test results reported in publication PMC2443153 (BMC Biochemistry, 2008).
# Like-named read-outs stand apart in the source and are kept apart here.
# Experiments:
# [1] = molecular target: T1, GFP-hRIα expressed in COS-7 cells (Homo sapiens, UniProt P10644); assay: Co-localization with GFP-tagged RIα by confocal microscopy; assay type: cell-based; settings: 500 μM, 30 minutes
# T1 construct: expressed in transfected cells; host or cells: COS-7
# Description: (§1) The scale bar indicates 10 μm.
# (§2) Cloning of the R subunits into the expression vector hpGFP^2-N2 (PerkinElmer) was performed as described previously. […] Cellular imaging was performed on a confocal microscope (Leica) with a Plan apo 100× oil immersion objective (Leica).
# PDE4D5 = PDE4D5 (Homo sapiens, UniProt Q08499); assay: Stability towards phosphodiesterase, coupled spectrophotometric activity assay; settings: 15 minutes of assay duration
# Chain of PDE4D5 (Q08499 1-745 isoform Q08499-6): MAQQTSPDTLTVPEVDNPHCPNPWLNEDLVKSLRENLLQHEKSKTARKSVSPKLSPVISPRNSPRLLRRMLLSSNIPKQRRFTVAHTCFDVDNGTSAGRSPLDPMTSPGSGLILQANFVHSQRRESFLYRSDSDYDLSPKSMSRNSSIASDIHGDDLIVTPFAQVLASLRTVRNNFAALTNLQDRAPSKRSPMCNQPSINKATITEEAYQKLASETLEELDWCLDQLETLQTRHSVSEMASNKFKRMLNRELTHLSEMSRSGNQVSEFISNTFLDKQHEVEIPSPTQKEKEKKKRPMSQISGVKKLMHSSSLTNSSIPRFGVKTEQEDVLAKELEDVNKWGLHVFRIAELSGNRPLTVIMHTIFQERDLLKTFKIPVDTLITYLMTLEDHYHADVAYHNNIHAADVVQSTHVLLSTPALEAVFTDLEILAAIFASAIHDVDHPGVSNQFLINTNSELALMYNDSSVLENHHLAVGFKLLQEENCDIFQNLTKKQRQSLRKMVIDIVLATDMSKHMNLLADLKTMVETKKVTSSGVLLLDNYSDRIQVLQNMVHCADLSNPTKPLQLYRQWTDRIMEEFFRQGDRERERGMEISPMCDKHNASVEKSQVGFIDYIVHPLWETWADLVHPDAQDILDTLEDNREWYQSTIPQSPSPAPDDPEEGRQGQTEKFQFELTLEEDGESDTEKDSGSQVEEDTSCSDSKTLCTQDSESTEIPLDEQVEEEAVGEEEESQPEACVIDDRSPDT
# From the text: Absolutely stable analogs would arise from conjugating the Pharos fluorophore to phosphorothioate- modified structures such as Rp- or Sp-cAMPS (Rp- or Sp-diastereomer of adenosine 3'-5'-monophosphorothiorate).
# PKA-IIα holoenzyme = molecular target: T2, PKA-IIα holoenzyme (Homo sapiens, UniProt P13861); assay: PKA holoenzyme activation, coupled spectrophotometric kinase assay with Kemptide (RIIα + Cα); assay type: biochemical, human RIIα, murine Cα; settings: relative to cAMP
# T2 construct: made in house; host or cells: E. coli BL21 (DE3) / BL21 (DE3) Codon Plus RIL
# T2 sequence (P13861 whole entry): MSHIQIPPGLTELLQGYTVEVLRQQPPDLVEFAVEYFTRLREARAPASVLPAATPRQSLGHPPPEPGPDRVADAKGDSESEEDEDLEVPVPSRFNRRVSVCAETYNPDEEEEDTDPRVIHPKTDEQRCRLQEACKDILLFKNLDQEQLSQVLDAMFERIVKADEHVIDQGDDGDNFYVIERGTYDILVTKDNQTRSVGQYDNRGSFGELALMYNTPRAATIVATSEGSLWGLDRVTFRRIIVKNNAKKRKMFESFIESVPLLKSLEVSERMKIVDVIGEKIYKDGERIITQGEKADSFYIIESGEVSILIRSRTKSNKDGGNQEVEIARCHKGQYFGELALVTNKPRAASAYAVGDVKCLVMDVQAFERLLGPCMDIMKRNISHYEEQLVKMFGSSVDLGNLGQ
# Description: (§3) Kinase activity was assayed spectrophotometrically, using the synthetic heptapeptide Kemptide as a substrate. […] Each data point represents the mean ± S.D. of two measurements.
# PKA-IIβ holoenzyme = molecular target: T3, PKA-IIβ holoenzyme (Rattus norvegicus, UniProt P12369); assay: PKA holoenzyme activation, coupled spectrophotometric kinase assay with Kemptide (RIIβ + Cα); assay type: biochemical, rat RIIβ, murine Cα; settings: relative to cAMP
# T3 construct: made in house; host or cells: E. coli BL21 (DE3) / BL21 (DE3) Codon Plus RIL
# T3 sequence (P12369 whole entry): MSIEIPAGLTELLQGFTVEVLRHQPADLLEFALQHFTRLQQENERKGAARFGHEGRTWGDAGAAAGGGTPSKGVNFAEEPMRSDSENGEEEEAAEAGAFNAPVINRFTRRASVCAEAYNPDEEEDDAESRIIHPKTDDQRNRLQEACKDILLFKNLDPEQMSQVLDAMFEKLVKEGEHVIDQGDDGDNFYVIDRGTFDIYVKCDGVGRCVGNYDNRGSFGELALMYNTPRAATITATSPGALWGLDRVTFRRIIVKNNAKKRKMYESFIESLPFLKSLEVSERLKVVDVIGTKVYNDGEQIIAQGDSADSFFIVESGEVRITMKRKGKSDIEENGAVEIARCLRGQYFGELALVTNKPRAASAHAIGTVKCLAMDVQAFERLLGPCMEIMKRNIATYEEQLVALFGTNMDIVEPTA
# Description: as §3
# PKA-Iα holoenzyme = molecular target: T4, PKA-Iα holoenzyme (Homo sapiens, UniProt P10644); assay: PKA holoenzyme activation, coupled spectrophotometric kinase assay with Kemptide (RIα + Cα); assay type: biochemical, human RIα, murine Cα; settings: 20 nM PKA-Cα, 260 μM Kemptide; cAMP value printed with refs 27, 28 and Fig. 4a; read-out: apparent activation constant (EC50), RIα holoenzyme
# T4 construct: made in house; host or cells: E. coli BL21 (DE3) / BL21 (DE3) Codon Plus RIL
# T4 sequence (P10644 whole entry): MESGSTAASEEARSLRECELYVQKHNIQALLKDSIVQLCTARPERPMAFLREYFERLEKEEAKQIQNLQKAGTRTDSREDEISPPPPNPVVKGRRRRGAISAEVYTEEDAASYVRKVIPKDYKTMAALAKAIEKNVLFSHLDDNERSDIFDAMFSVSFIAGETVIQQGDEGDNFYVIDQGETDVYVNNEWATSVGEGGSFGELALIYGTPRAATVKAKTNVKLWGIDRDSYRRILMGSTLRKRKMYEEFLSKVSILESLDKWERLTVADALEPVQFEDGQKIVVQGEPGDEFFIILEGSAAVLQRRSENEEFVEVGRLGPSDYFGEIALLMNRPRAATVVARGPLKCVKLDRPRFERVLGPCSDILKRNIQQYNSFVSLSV
# Description: as §3
# [2] = molecular target: T5, PKA-IIα sensor (RIIα-RLuc / GFP2-Cα) in COS-7 cells (Homo sapiens, UniProt P13861); assay: BRET assay of PKA holoenzyme dissociation in living cells; settings: 30 minutes
# T5 sequence (P13861 whole entry): as the sequence (P13861 whole entry) above
# From the text: In this assay, a decrease in BRET signal indicates intracellular dissociation of the PKA holoenzyme [42].
# BRET signals were obtained after addition of the luciferase substrate DeepBlueC™ and detection of luciferase and fluorescence light emission using a multi-label reader. Shown is a representative experiment, repeated three times; data are mean ± S.E.M., performed with n = 6 replicates. […] Briefly, cells were co-transfected with a constant amount of BRET donor (hRIIα-Rluc) and an increasing amount of acceptor DNA (GFP^2-hCα) as indicated. […] The BRET values of two independent experiments, each performed with n = 6 replicates, were background subtracted, normalized and plotted as mean ± S.E.M.
# COS-7 cells were used for BRET experiments. […] For the BRET read-out, the luciferase substrate DeepBlueC™ (PerkinElmer) was added at a final concentration of 5 μM in a total volume of 50 μl D-PBS. […] Control measurements with cells expressing RLuc and GFP proteins without a fusion partner yield the background BRET signal. A BRET titration (bystander BRET test) was performed by co-transfection of COS-7 cells with a constant donor-expression plasmid (0.5 μg) with an increasing amount of acceptor-expression plasmid (0–2 μg). The cells were treated as described above.
# [3] = system: HEK293 cells expressing H30 indicator; assay: Uptake in living cells, Epac-based FRET cAMP indicator H30; assay type: cell-based; settings: 100 μM IBMX
# From the text: Since FRET depends on the distance between the two fluorophores which in turn is ligand-dependent, this probe is used to estimate the intracellular level of cAMP or -analogs.
# We can not exclude, however, that the Epac- based FRET sensor used for the measurements preferentially binds Sp-5,6-DCl-cBIMPS.
# The ratio between the background subtracted emission intensities at 480 nm and 545 nm is plotted as a function of time. […] The insets show the yellow fluorescent protein fluorescence at the beginning of the experiments and the regions of interest where FRET ratios are calculated.
# For transient expression of the H30 sensor, cells were seeded onto 24-mm diameter round glass coverslips, and transfections were performed at 50–70% confluence with FuGENE-6 transfection reagent (Roche). Imaging experiments were performed after about 24 h. Cells were maintained in Hepes-buffered Ringer-modified solution, containing 125 mM NaCl, 5 mM KCl, 1 mM Na3PO4, 1 mM MgS0_4, 5.5 mM glucose, 1 mM CaCl2, and 20 mM Hepes, pH 7.4, at room temperature and treated with 100 μM 3-Isobutyl-1-methylxanthine (IBMX, Sigma-Aldrich) 10 minutes before the experiments. […] FRET variations were measured as changes of the ratio between the background-subtracted fluorescence emission intensities at 480 nm and 545 nm, on excitation at 430 nm. […]
# [4] = Retention-based lipophilicity by reversed phase HPLC (logKw)
# RIα subunit = molecular target: T6, RIα subunit (Homo sapiens, UniProt P10644); assay: Fluorescence polarization displacement of 8-Fluo-cAMP from RIα subunit; assay type: binding; settings: 2.5 nM RIα, 1 nM 8-Fluo-cAMP
# T6 construct: made in house; host or cells: E. coli BL21 (DE3) Codon Plus RIL
# T6 sequence (P10644 whole entry): as the sequence (P10644 whole entry) above
# Description: (§4) . Figure 3 Competitive nucleotide binding assay using fluorescence polarization. […] 2.5 nM R subunit was added and fluorescence polarization was determined at Ex485 nm/Em535 nm. […] Each data point represents the mean +/- S.E.M. from at least triplicate measurements.
# (§5) For expression of PKA regulatory subunits, one liter of Luria Broth medium containing 100 μg/ml of ampicillin was inoculated with E. coli BL21 (DE3) Codon Plus RIL cells (Stratagene) transformed with human RIα, RIβ, RIIα (in pRSETB) or rat RIIβ (in pETIIc) and grown at 37°C to an OD600 nm of 0.8. Recombinant protein expression was induced by addition of […] isopropyl-β-D-thiogalactopyranoside (IPTG) and the culture was incubated at 25°C for additional 17–18 h. The pellets were stored at -20°C.
# (§6) The fluorescence polarization displacement assay was performed as described before. […] Fluorescence polarization was measured after 5 minutes of incubation at room temperature.
# RIIα subunit = assay: Fluorescence polarization displacement of 8-Fluo-cAMP from RIIα subunit; assay type: binding, human; settings: 2.5 nM RIIα, 1 nM 8-Fluo-cAMP
# Description: as §4, §5, §6
# RIIβ subunit = assay: Fluorescence polarization displacement of 8-Fluo-cAMP from RIIβ subunit; assay type: binding, rat; settings: 2.5 nM RIIβ, 1 nM 8-Fluo-cAMP
# Description: as §4, §5, §6
# [5] = molecular target: T7, GFP-hRIIα expressed in COS-7 cells (Homo sapiens, UniProt P13861); assay: Co-localization with GFP-tagged RIIα by confocal microscopy; assay type: cell-based; settings: 500 μM, 30 minutes
# T7 construct: expressed in transfected cells; host or cells: COS-7
# T7 sequence (P13861 whole entry): as the sequence (P13861 whole entry) above
# Description: as §1, §2
# [6] = Absorption and fluorescence spectra, relative quantum yield; assay type: physicochemical; settings: pH 7.0
# From the text: First we determined the photo-chemical properties of the free Pharos dye. The Stokes shift at pH 6.0, pH 7.0 and pH 7.4 was 42 nm resulting from an absorption maximum at 575 nm and an emission maximum at 617 nm (Fig. 1; […]
# Figure 1 Fluorescence absorption and emission spectra of the Pharos dye. The absorption maxima of the Pharos dye dissolved in buffer with the indicated pH values is at 575 nm, whereas the emission maxima are at 617 nm.
# To calculate the relative quantum yield ϕ of the Pharos dye the absorption (500 nm to 640 nm) and fluorescence (λex = 553 nm, λem ranging from 558 nm to 800 nm) spectra of several Pharos dye concentrations (640 nM to 64.2 μM) were recorded using quinine sulfate as a standard. The determination of the relative quantum yield is generally accomplished by plotting the integrated fluorescence intensity versus the absorbance at the excitation wavelength (see Additional file 1, panel a). By comparing the slope of the linear regression (see Additional file 1, panel b) with that of a standard substance (quinine sulfate), the relative quantum yield of the Pharos dye was determined to be 30%.
# The Pharos dye was diluted in 20 mM 2-(4-morpholino)-ethane sulfonic acid (MES) buffer adjusted to pH 6.0, pH 7.0 and pH 7.4, and all samples were degassed by bubbling nitrogen through the solution before measuring the absorption or fluorescence spectra. […]
# [7] = molecular target: T5, PKA-IIα sensor (RIIα-RLuc / GFP2-Cα) in COS-7 cells; set-up: expressed in transfected cells; host or cells: COS-7; method as in PMID 16524697; settings: living cells; read-out: EC50, holoenzyme dissociation by BRET; cited from earlier work
# T1 sequence (P10644 whole entry): as the sequence (P10644 whole entry) above
compound,measurement,setting,value
"8-[Pharos-575]adenosine -3',5'-cyclic monophosphate [8-[ϕ-575]-cAMP]",co-localization with GFP-tagged RIα,[1],co-localization
same,degradation by PDE4D5,PDE4D5,No degradation
same,"apparent activation constant (EC50) compared to cAMP, RIIα holoenzyme",PKA-IIα holoenzyme,about two-fold increased
same,"apparent activation constant (EC50) compared to cAMP, RIIβ holoenzyme",PKA-IIβ holoenzyme,about two-fold increased
same,EC50,PKA-Iα holoenzyme,0.15 µM
same,inhibition of specific RIIα-Cα interaction (BRET titration),"[2]; 600 μM, COS-7 cells",about 50%
same,EC50,"[2]; read-out: concentration for half-maximal holoenzyme dissociation, added to intact COS-7 cells",~600 µM
same,concentration available to the intracellular fluorescent indicator,"[3]; 500 μM added for one hour, estimated from cAMP dose-FRET response curve",about 7 μM
same,increased lipophilicity compared to cAMP,[4]; from logKw,more than 70 times
same,logKw,"[4]; reversed phase HPLC, YMC RP-18",2.95
same,binding to the R subunit compared with cAMP (displacement of 8-Fluo-cAMP),RIα subunit,bound equally well
same,times cAMP is more efficient in displacing 8-Fluo-cAMP compared to 8-[ϕ-575]-cAMP,RIIα subunit,about 10 times
same,times cAMP is more efficient in displacing 8-Fluo-cAMP compared to 8-[ϕ-575]-cAMP,RIIβ subunit,~5 times
same,co-localization with GFP-tagged RIIα,[5],co-localization
same,emission maximum,[6],605 nm
same,excitation maximum,[6],577 nm
"O[C@@H]1[C@@H]2OP(O)(=S)OC[C@H]2O[C@H]1n1cnc2cc(Cl)c(Cl)cc21 (single isomer, unassigned) [Sp-5,6-DCl-cBIMPS, 5,6-dichlorobenzimidazole riboside-3',5'-cyclic monophosphorothioate, Sp-isomer, reference compound]",state of the fluorescent FRET probe after treatment,"[3]; 500 μM, after 40 minutes of treatment",almost completely saturated
"Nc1ncnc2c1nc(Br)n2[C@@H]1O[C@@H]2COP(=O)(O)O[C@H]2[C@H]1O [8-Br-cAMP, 8-Bromoadenosine-3',5'-cyclic monophosphate]",EC50,[7],1500 µM
